Measurements reported in ChEMBL document CHEMBL1201862, “PubChem BioAssay data set” (2004).
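In this assay, cells in 96-well plates receive the compound at five concentrations for 48 hours. Endpoints are linearly interpolated between the surrounding concentrations. Here, GI50 denotes the concentration required for 50% inhibition of growth.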 Calls of active or inactive are those of the source. Cut-off read from the data, not from the text of the source: active = GI50 up to about 1.1 µM and inactive = higher.

Key:
Experiment in all cases: DTP human tumour cell line panel, 48 h
DMS-114 = system: DMS-114
DMS-273 = system: DMS-273
HOP-18 = system: HOP-18
KM-20L2 = system: KM-20L2
LXFL 529 = system: LXFL 529
M19-MEL = system: M19-MEL
SNB-78 = system: SNB-78
XF498 = system: XF498
RXF 631 = system: RXF 631

Cc1cccc(NC(=O)CC2C(=O)Nc3ccccc3S2(=O)=O)c1C (stereo not given)
GI50 (DMS-114): 20.3 µM (inactive)
GI50 (DMS-273): 25.8 µM (inactive)
GI50 (HOP-18): 22.1 µM (inactive)
GI50 (KM-20L2): 39.4 µM (inactive)
GI50 (LXFL 529): 36.9 µM (inactive)
GI50 (M19-MEL): 32.5 µM (inactive)
GI50 (SNB-78): 26.1 µM (inactive)

O=C(OCc1ccccc1C1CSCSC1)c1cc(C(=O)OCc2ccccc2C2CSCSC2)c(C(=O)OCc2ccccc2C2CSCSC2)cc1C(=O)OCc1ccccc1C1CSCSC1
GI50 (DMS-114): > 100 µM (inactive)
GI50 (DMS-273): > 100 µM (inactive)
GI50 (HOP-18): > 100 µM (inactive)
GI50 (KM-20L2): > 100 µM (inactive)
GI50 (LXFL 529): > 100 µM (inactive)
GI50 (M19-MEL): > 100 µM (inactive)
GI50 (SNB-78): 78.9 µM (inactive)

NCCCNCc1c2ccccc2c(CNCCCN)c2ccccc12
GI50 (DMS-114): 14.3 µM (inactive)
GI50 (HOP-18): 25.1 µM (inactive)
GI50 (KM-20L2): 17.9 µM (inactive)
GI50 (LXFL 529): 11.4 µM (inactive)
GI50 (M19-MEL): 14.7 µM (inactive)
GI50 (SNB-78): 22.5 µM (inactive)

OCC(O)C(O)C(O)C(O)c1nnn[nH]1 (stereo not given)
GI50 (DMS-114): > 100 µM (inactive)
GI50 (DMS-273): > 100 µM (inactive)
GI50 (LXFL 529): > 100 µM (inactive)
GI50 (M19-MEL): > 100 µM (inactive)
GI50 (SNB-78): > 100 µM (inactive)
GI50 (XF498): > 100 µM (inactive)

C[C@]12C=CC(=O)C=C1[C@@H](F)C[C@H]1[C@@H]3CC[C@](O)(C(=O)CO)[C@@]3(C)C[C@H](O)[C@@]12F
GI50 (DMS-114): > 100 µM (inactive)
GI50 (DMS-273): > 100 µM (inactive)
GI50 (KM-20L2): > 100 µM (inactive)
GI50 (LXFL 529): > 100 µM (inactive)
GI50 (M19-MEL): > 100 µM (inactive)
GI50 (SNB-78): > 84.1 µM (inactive)
GI50 (XF498): 97.7 µM (inactive)

Cc1ccc(NC(=O)c2cc3cc(/N=N/c4ccccc4C(=O)O)ccc3oc2=O)cc1
GI50 (DMS-114): 24 µM (inactive)
GI50 (DMS-273): 37.4 µM (inactive)
GI50 (HOP-18): 32 µM (inactive)
GI50 (KM-20L2): 36 µM (inactive)
GI50 (XF498): 33 µM (inactive)

O=C(CSc1nnc(-c2ccc(/N=C\c3ccc(Cl)cc3)cc2)o1)Nc1ccc(Cl)cc1Cl
GI50 (DMS-273): 34.3 µM (inactive)
GI50 (HOP-18): 11.6 µM (inactive)
GI50 (KM-20L2): 37.2 µM (inactive)
GI50 (LXFL 529): 22.4 µM (inactive)
GI50 (M19-MEL): 31.7 µM (inactive)
GI50 (SNB-78): > 100 µM (inactive)
GI50 (XF498): 17.7 µM (inactive)

COc1cc2c(cc1OC)C(Cc1cc(Br)c(OC)c(OC)c1)=[N+](C)CC2
GI50 (DMS-114): 2.52 µM (inactive)
GI50 (HOP-18): > 100 µM (inactive)
GI50 (KM-20L2): 39.2 µM (inactive)
GI50 (LXFL 529): 9.73 µM (inactive)
GI50 (M19-MEL): 56.1 µM (inactive)
GI50 (SNB-78): 92.5 µM (inactive)

N#Cc1ccccc1/C=N/O
GI50 (DMS-114): > 59.4 µM (inactive)
GI50 (DMS-273): > 41.4 µM (inactive)
GI50 (HOP-18): > 100 µM (inactive)
GI50 (KM-20L2): > 100 µM (inactive)
GI50 (LXFL 529): > 91.4 µM (inactive)
GI50 (M19-MEL): > 100 µM (inactive)
GI50 (SNB-78): > 100 µM (inactive)
GI50 (XF498): > 100 µM (inactive)

CC(O)C(C(=O)O)N(CC1(O)OCC(O)C(O)C1O)N=O (stereo not given)
GI50 (DMS-114): > 100 µM (inactive)
GI50 (DMS-273): > 100 µM (inactive)
GI50 (KM-20L2): > 100 µM (inactive)
GI50 (LXFL 529): > 100 µM (inactive)
GI50 (M19-MEL): > 100 µM (inactive)
GI50 (RXF 631): > 100 µM (inactive)
GI50 (SNB-78): > 100 µM (inactive)
GI50 (XF498): > 100 µM (inactive)

COc1cc(-c2nccc3cc(OC)c(OC)cc23)ccc1O
GI50 (DMS-273): 43.5 µM (inactive)
GI50 (HOP-18): 21.1 µM (inactive)
GI50 (KM-20L2): 33.7 µM (inactive)
GI50 (LXFL 529): 29.7 µM (inactive)
GI50 (M19-MEL): > 100 µM (inactive)
GI50 (RXF 631): 62.4 µM (inactive)
GI50 (SNB-78): > 100 µM (inactive)
GI50 (XF498): 25.4 µM (inactive)

Brc1ccccc1C1SCc2nc3ccccc3n21 (stereo not given)
GI50 (DMS-114): 16 µM (inactive)
GI50 (HOP-18): < 0.01 µM (active)
GI50 (LXFL 529): 15.1 µM (inactive)
GI50 (M19-MEL): 15 µM (inactive)
GI50 (SNB-78): 26.4 µM (inactive)

C#CCNC(=O)N(CC#C)N=O
GI50 (DMS-114): > 100 µM (inactive)
GI50 (DMS-273): > 100 µM (inactive)
GI50 (HOP-18): > 100 µM (inactive)
GI50 (KM-20L2): > 100 µM (inactive)
GI50 (LXFL 529): > 100 µM (inactive)
GI50 (M19-MEL): > 100 µM (inactive)
GI50 (SNB-78): > 100 µM (inactive)
GI50 (XF498): > 100 µM (inactive)

O=C1C(O)=C(CC=C(Cl)Cl)C(=O)c2ccccc21
GI50 (DMS-114): 18 µM (inactive)
GI50 (DMS-273): 2.04 µM (inactive)
GI50 (HOP-18): 25.4 µM (inactive)
GI50 (KM-20L2): 9.42 µM (inactive)
GI50 (LXFL 529): 2.38 µM (inactive)
GI50 (M19-MEL): 7.64 µM (inactive)
GI50 (SNB-78): 21.9 µM (inactive)
GI50 (XF498): 32.3 µM (inactive)

COc1cc(/C=C2\CCC(CN(C)C)C2=O)ccc1OC(=O)c1ccccc1 (stereo not given)
GI50 (DMS-114): 15.8 µM (inactive)
GI50 (DMS-273): 11.1 µM (inactive)
GI50 (HOP-18): 16.9 µM (inactive)
GI50 (KM-20L2): 15.9 µM (inactive)
GI50 (LXFL 529): 2.88 µM (inactive)
GI50 (M19-MEL): 8.57 µM (inactive)
GI50 (RXF 631): 11.2 µM (inactive)
GI50 (SNB-78): 19.2 µM (inactive)
GI50 (XF498): 20.3 µM (inactive)

COc1cc(Br)c(/C=N\c2cccc3ccc(OS(=O)(=O)c4ccc([N+](=O)[O-])cc4)cc23)cc1OC
GI50 (DMS-114): > 100 µM (inactive)
GI50 (LXFL 529): 12.2 µM (inactive)
GI50 (M19-MEL): > 100 µM (inactive)
GI50 (SNB-78): 34.2 µM (inactive)

Cn1c(=O)c(/N=N/c2c(=O)n(C)c(=O)n3c2[nH]c2ccccc23)c2[nH]c3ccccc3n2c1=O
GI50 (DMS-114): 63 µM (inactive)
GI50 (DMS-273): > 100 µM (inactive)
GI50 (HOP-18): 24 µM (inactive)
GI50 (KM-20L2): > 100 µM (inactive)
GI50 (LXFL 529): 20 µM (inactive)
GI50 (M19-MEL): > 100 µM (inactive)
GI50 (RXF 631): 85.7 µM (inactive)
GI50 (SNB-78): > 100 µM (inactive)
GI50 (XF498): > 100 µM (inactive)

O=C(NNC(=O)/C(=C/c1cccc([N+](=O)[O-])c1)NC(=O)c1ccccc1)Nc1ccc(Cl)cc1
GI50 (DMS-114): 11.5 µM (inactive)
GI50 (DMS-273): 12.9 µM (inactive)
GI50 (HOP-18): 15.6 µM (inactive)
GI50 (KM-20L2): 17.1 µM (inactive)
GI50 (LXFL 529): 10.6 µM (inactive)
GI50 (M19-MEL): 15.2 µM (inactive)
GI50 (RXF 631): 10.2 µM (inactive)
GI50 (SNB-78): 24 µM (inactive)
GI50 (XF498): 9.53 µM (inactive)

COC(=O)C1=C(C[S+]([O-])c2ccc([N+](=O)[O-])cc2[N+](=O)[O-])ON(C)C1c1ccccc1 (stereo not given)
GI50 (DMS-114): 27.7 µM (inactive)
GI50 (DMS-273): 36.2 µM (inactive)
GI50 (HOP-18): 22.6 µM (inactive)
GI50 (KM-20L2): 27.8 µM (inactive)
GI50 (LXFL 529): 30.1 µM (inactive)
GI50 (M19-MEL): 34.3 µM (inactive)
GI50 (RXF 631): 99.5 µM (inactive)
GI50 (SNB-78): 33.9 µM (inactive)
GI50 (XF498): 37.3 µM (inactive)

[O-][Cl+3]([O-])([O-])[O-].c1ccc(C[P+]2(c3ccccc3)CCCCC2)cc1
GI50 (DMS-114): 48.5 µM (inactive)
GI50 (DMS-273): 79.3 µM (inactive)
GI50 (HOP-18): > 100 µM (inactive)
GI50 (KM-20L2): > 100 µM (inactive)
GI50 (LXFL 529): 38.3 µM (inactive)
GI50 (M19-MEL): 28.8 µM (inactive)
GI50 (SNB-78): > 100 µM (inactive)
GI50 (XF498): 33.6 µM (inactive)

O=C(Nc1cccc(C(F)(F)F)c1)C(=O)C1NC(=S)NC1=O (stereo not given)
GI50 (DMS-114): > 100 µM (inactive)
GI50 (DMS-273): > 100 µM (inactive)
GI50 (HOP-18): > 100 µM (inactive)
GI50 (KM-20L2): > 100 µM (inactive)
GI50 (LXFL 529): > 100 µM (inactive)
GI50 (M19-MEL): > 100 µM (inactive)
GI50 (SNB-78): > 100 µM (inactive)

CCN1C[C@]2(C)CC[C@H](O)C34C1C(C[C@@H]32)[C@@]1(O)CC[C@H]2C[C@@H]4[C@@H]1[C@H]2O
GI50 (DMS-114): > 100 µM (inactive)
GI50 (DMS-273): > 100 µM (inactive)
GI50 (HOP-18): > 100 µM (inactive)
GI50 (KM-20L2): > 100 µM (inactive)
GI50 (LXFL 529): > 100 µM (inactive)
GI50 (M19-MEL): > 100 µM (inactive)
GI50 (SNB-78): 88.7 µM (inactive)

Cc1ccc(S(=O)(=O)NC(=O)NCCc2ccccc2)cc1
GI50 (DMS-114): 62.1 µM (inactive)
GI50 (HOP-18): > 100 µM (inactive)
GI50 (KM-20L2): > 100 µM (inactive)
GI50 (LXFL 529): > 100 µM (inactive)
GI50 (M19-MEL): > 100 µM (inactive)
GI50 (SNB-78): > 100 µM (inactive)
GI50 (XF498): > 100 µM (inactive)
